# Measurements from patent US10160736B2, “1,3,4-oxadiazole and 1,3,4-thiadiazole derivatives as immunomodulators” (Aurigene Discovery Technologies Limited, priority 2013, dated 2018).
# Target: T1, Recombinant mouse PD-L1 (Mus musculus, UniProt Q9EP73)
# T1 construct: Fc (Fc chimera); purchased R&D Systems 1019-B7-100
# Assay: Rescue of mouse splenocyte proliferation in the presence of recombinant PD-L1/PD-L2 (CFSE proliferation assay)
# Format: cell-based
# Settings: 100 nM compound; anti-CD3/CD28 stimulated mouse splenocytes + PD-L1; 72 h; normalised to stimulated splenocyte proliferation as 100%; read-out: Percent rescue of splenocyte proliferation (@100 nM compound concentration)
# Experimental: Rescue of Mouse Splenocyte Proliferation in the Presence of Recombinant PD-L1/PD-L2:
# Recombinant mouse PD-L1 (rm-PDL-1, cat no: 1019-B7-100 and R&D Systems) were used as the source of PD-L1.
# Mouse splenocytes harvested from 6-8 weeks old C57 BL6 mice; RPMI 1640 (GIBCO, Cat #11875); DMEM with high glucose (GIBCO, Cat # D6429); Fetal Bovine Serum [Hyclone, Cat # SH30071.03]; Penicillin (10000 unit/ml)-Streptomycin (10,000 μg/ml) Liquid (GIBCO, Cat #15140-122); MEM Sodium Pyruvate solution 100 mM (100×), Liquid (GIBCO, Cat #11360); Nonessential amino acid (GIBCO, Cat #11140); L-Glutamine (GIBCO, Cat #25030); Anti-CD3 antibody (eBiosciences—16-0032); Anti-CD28 antibody (eBiosciences—16-0281); ACK lysis buffer (1 mL) (GIBCO, Cat #-A10492); Histopaque (density—1.083 gm/mL) (SIGMA 10831); Trypan blue solution (SIGMA-T8154); 2 mL Norm Ject Luer Lock syringe-(Sigma 2014-12); 40 μM nylon cell strainer (BD FALCON 35230); Hemacytometer (Bright line-SIGMA Z359629); FACS Buffer (PBS/0.1% BSA): Phosphate Buffered Saline (PBS) pH 7.2 (HiMedia TS1006) with 0.1% Bovine Serum Albumin (BSA) (SIGMA A7050) and sodium azide (SIGMA 08591); 5 mM stock solution of CFSE: CFSE stock solution was prepared by diluting lyophilized CFSE with 180 μL of Dimethyl sulfoxide (DMSO C2H6SO, SIGMA-D-5879) and aliquoted in to tubes for further use. Working concentrations were titrated from 10 μM to 1 μM. (eBioscience-650850-85); 0.05% Trypsin and 0.02% EDTA (SIGMA 59417C); 96-well format ELISA plates (Corning CLS3390); BD FACS caliber (E6016); Recombinant mouse B7-H1/PDL1 Fc Chimera, (rm-PD-L1 cat no: 1019-B7-100).
# Splenocytes harvested in a 50 mL falcon tube by mashing mouse spleen in a 40 μm cell strainer were further treated with 1 mL ACK lysis buffer for 5 min at room temperature. After washing with 9 mL of RPMI complete media, cells were re-suspended in 3 mL of 1×PBS in a 15 mL tube. 3 mL of Histopaque was added carefully to the bottom of the tube without disturbing overlaying splenocyte suspension. After centrifuging at 800×g for 20 min at room temperature, the opaque layer of splenocytes was collected carefully without disturbing/mixing the layers. Splenocytes were washed twice with cold 1×PBS followed by total cell counting using Trypan Blue exclusion method and used further for cell based assays.
# Splenocytes were cultured in RPMI complete media (RPMI+10% fetal bovine serum+1 mM sodium pyruvate+10,000 units/ml penicillin and 10,000 μg/ml streptomycin) and maintained in a CO2 incubator with 5% CO2 at 37° C.
# CFSE is a dye that passively diffuses into cells and binds to intracellular proteins. 1×10^6 cells/mL of harvested splenocytes were treated with 5 μM of CFSE in pre-warmed 1×PBS/0.1% BSA solution for 10 min at 37° C. Excess CFSE was quenched using 5 volumes of ice-cold culture media to the cells and incubated on ice for 5 min. CFSE labelled splenocytes were further given three washes with ice cold complete RPMI media. CFSE labelled 1×10^5 splenocytes added to wells containing either MDA-MB231 cells (1×10^5 cells cultured in high glucose DMEM medium) or recombinant […] PDL-1 (100 ng/mL) and test compounds. Splenocytes were stimulated with anti-mouse CD3 and anti-mouse CD28 antibody (1 μg/mL each), and the culture was further incubated for 72 h at 37° C. with 5% CO2. Cells were harvested and washed thrice with ice cold FACS buffer and % proliferation was analyzed by flow cytometry with 488 nm excitation and 521 nm emission filters.
# Percent splenocyte proliferation was analyzed using cell quest FACS program and percent rescue of splenocyte proliferation by compound was estimated after deduction of % background proliferation value and normalising to % stimulated splenocyte proliferation (positive control) as 100%.
# Stimulated splenocytes: Splenocytes+anti-CD3/CD28 stimulation
# Background proliferation: Splenocytes+anti-CD3/CD28+PD-L1
# Compound proliferation: Splenocytes+anti-CD3/CD28+PD-L1+Compound […]
# T1 sequence (Q9EP73 with tags, fused parts or gaps limits assumed): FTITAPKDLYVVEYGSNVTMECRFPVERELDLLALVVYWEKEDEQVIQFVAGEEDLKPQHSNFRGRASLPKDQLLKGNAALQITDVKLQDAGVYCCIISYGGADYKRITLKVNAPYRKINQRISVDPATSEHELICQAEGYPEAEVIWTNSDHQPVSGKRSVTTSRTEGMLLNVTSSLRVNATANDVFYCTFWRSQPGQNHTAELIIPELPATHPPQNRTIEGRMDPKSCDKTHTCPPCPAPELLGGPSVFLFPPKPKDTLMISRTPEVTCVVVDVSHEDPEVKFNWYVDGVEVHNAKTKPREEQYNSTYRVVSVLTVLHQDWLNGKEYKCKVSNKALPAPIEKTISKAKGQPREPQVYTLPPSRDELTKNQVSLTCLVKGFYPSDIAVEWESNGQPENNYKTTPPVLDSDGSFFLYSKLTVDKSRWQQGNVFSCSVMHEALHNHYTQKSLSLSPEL
row,Structure (SMILES),activation at 0.1 µM
1,CC(O)[C@H](NC(=O)N[C@@H](C)c1nnc([C@@H](N)CO)o1)C(=O)O (stereo partly shown) [Compound 1],61.2%
2,CC(O)[C@H](NC(=O)N[C@@H](CC(N)=O)c1nnc([C@@H](N)CO)o1)C(=O)O (stereo partly shown) [Compound 2],80.3%
3,NC(=O)C[C@H](N)c1nnc([C@@H](N)CO)s1 [Compound 3],48.4%
4,CC(O)[C@H](NC(=O)N[C@@H](CC(N)=O)c1nnc([C@@H](N)CO)s1)C(=O)O (stereo partly shown) [Compound 4],60%
5,CC(O)[C@H](NC(=O)N[C@@H](CC(N)=O)c1nnc([C@@H](N)C(C)O)o1)C(=O)O (stereo partly shown) [Compound 9],74%
6,CC(O)[C@H](NC(=O)N[C@@H](CC(=O)O)c1nnc([C@@H](N)CO)o1)C(=O)O (stereo partly shown) [Compound 18],68%

# Results, then the compound that gave them:
row,activation at 0.1 µM,Structure (SMILES)
1,58%,CC(O)[C@H](N)c1nnc([C@H](CC(N)=O)NC(=O)N[C@@H](CO)C(=O)O)o1 (stereo partly shown) [Compound 10]
2,92%,CC(O)[C@H](N)c1nnc([C@H](CCC(N)=O)NC(=O)N[C@@H](CO)C(=O)O)o1 (stereo partly shown) [Compound 12]
3,75%,CC(O)[C@H](NC(=O)N[C@@H](CCC(N)=O)c1nnc([C@@H](N)C(C)O)o1)C(=O)O (stereo partly shown) [Compound 13]
4,53%,NC(=O)C[C@H](NC(=O)N[C@@H](CO)C(=O)O)c1nnc([C@@H](N)CO)o1 [Compound 14]
5,69%,CC(O)[C@H](NC(=O)N[C@@H](CCC(=O)O)c1nnc([C@@H](N)CO)o1)C(=O)O (stereo partly shown) [Compound 15]
6,56%,CC(O)[C@H](NC(=O)N[C@@H](CCC(N)=O)c1nnc([C@@H](N)CO)o1)C(=O)O (stereo partly shown) [Compound 16]
7,53%,NC(=O)CC[C@H](NC(=O)N[C@@H](CO)C(=O)O)c1nnc([C@@H](N)CO)o1 [Compound 17]
